Assay results reported in patent US20080176251A1, “Preparation of high purity phenothiazine N-alkylsulfonates and their use in chemiluminescent assays for the measurement of peroxidase acitivity” (Cyanagen Srl, priority 2007, published 2008).

Columns and labels:
peroxidase enzyme = conditions: phenothiazine present as impurity in the enhancer; according to U.S. Pat. No. 6,432,662; cited from earlier work
[1] = system: horseradish peroxidase (HRP-Type VIIA); test: pH dependence of the enhanced luminol-peroxide-peroxidase chemiluminescent reaction (Example 5); type: biochemical; conditions: 5.0 mM luminol, 4.00 mM perborate, 1.50 mM enhancer; all pH values
Experimental: All measurements reported in Example 5 were carried out with a fluorimeter (Varian Eclipse), Bio/Chemiluminescence Mode (wavelength of emission: 425 nm; emission slit: 10 nm; emission filter: open; photomultiplier voltage: medium). A series of substrates in 0.125 M, pH 9.1 Tris Buffer is prepared, with the following composition: • [luminol sodium salt]=5.0 mM. • [sodium perborate]=4.00 mM • 3-(phenothiazin-10-yl)propane-1-sulfonate=1.50 mM
A series of polymethylmethacrylate fluorimetry cuvettes is prepared, each containing of containing 2 mL of substrate. To each cuvette is added a small amount of 5M or 12M HCl, in order to adjust the pH to the following values: 9.02, 8.76, 8.51, 8.41, 8.28, 8.14 and 7.95, and limiting changes in the total volume to less than 5%. Then to each cuvette are added 10 μL of a 0.5 μg/mL solution of horseradish peroxidase (HRP-Type VIIA). After mixing the solution with a vortex for a few seconds, measurement of the luminescent signal is initiated. […] From the results obtained, which are shown in FIG. 3, it is evident that the chemiluminescent signal reaches the maximum value in the range between pH 8.3 and pH 8.6.

peroxidase = conditions: results obtained by Fujirebio, U.S. Pat. No. 5,171,668; cited from earlier work
[2] = system: horseradish peroxidase (HRP-Type VIIA); test: luminol-peroxide-peroxidase chemiluminescent reaction, dependence on enhancer concentration (Example 3); type: biochemical; conditions: 2.50 mM luminol, 2.00 mM perborate, pH 8.6
Experimental: All measurements reported in Example 3 were carried out with a spectrofluorimeter (Varian Eclipse), Bio/Chemiluminescence Mode (wavelength of emission: 425 nm; emission slit: 20 nm). A series of substrates in 0.1 M, pH 8.6 Tris Buffer is prepared, with the following compositions: • [luminol sodium salt]=2.50 mM • [sodium perborate]=2.00 mM • 3-(phenothiazin-10-yl)propane-1-sulfonate=11.5 μM, 23 μM, 47 μM, 94 μM, 188 μM, 375 μM, 1500 μM e 3000 μM.
To a polymethylmethacrylate fluorimetry cuvette of containing 2 mL of each substrate, is added 10 μL of a solution of 0.5 μg/mL of horseradish peroxidase (HRP-Type VIIA). After mixing the solution with a vortex for a few seconds, measurement of the luminescent signal is initiated. […] The dependence of the chemiluminescent signal (plateau value) for each substrate, is reported graphically in FIG. 1. The luminescent signal grows very rapidly with increasing concentration of the enhancer, 3-(phenothiazin-10-yl)propane-1-sulfonate, until it reaches a maximum value between 0.5 and 1 mM. Further raising the concentration of the enhancer, the chemiluminescent signal begins to decline slowly. At the highest concentration of enhancer, 3.0 mM, the signal is approximately 70% of the maximum value.

[3] = system: horseradish peroxidase (HRP-Type VIIA); test: enhanced luminol-peroxide-peroxidase chemiluminescent reaction, dependence on luminol concentration (Example 4); type: biochemical
Experimental: All measurements reported in Example 4 were carried out with a spectrofluorimeter (Varian Eclipse), Bio/Chemiluminescence Mode (wavelength of emission: 425 nm; emission slit: 20 nm). A series of substrates in 0.1 M, pH 8.6 Tris Buffer is prepared, with the following compositions: • [luminol sodium salt]=0.625 mM, 1.25 mM, 2.50 mM, 5.0 mM, 10 mM. • [sodium perborate]=2.00 mM • 3-(phenothiazin-10-yl)propane-1-sulfonate=0.75 mM
To a polymethylmethacrylate fluorimetry cuvette of containing 2 mL of each substrate, is added 10 μL of a solution of 0.5 μg/mL of horseradish peroxidase (HRP-Type VIIA). After mixing the solution with a vortex for a few seconds, measurement of the luminescent signal is initiated. […] The dependence of the chemiluminescent signal (plateau value) for each substrate, is reported graphically in FIG. 2. The luminescent signal gradually grows very rapidly with increasing concentration of the luminol, until it reaches a maximum value between 0.5 and 1 mM. Further raising the concentration of the enhancer, the chemiluminescent signal begins to decline slowly. At the highest concentration of enhancer, 3.0 mM, the signal is approximately 70% of the maximum value. The luminescent signal grows gradually, and reaches a plateau at the highest concentration of luminol used in the experiment, 10 mM.

SMILES | effect on the peroxidase enzyme (peroxidase enzyme) | time course of the chemiluminescent signal [1] | enhancement of luminol chemiluminescence compared with standard enhancer 4-iodophenol (peroxidase) | time course of the chemiluminescent signal ([2]; all enhancer concentrations) | chemiluminescent signal relative to the maximum value ([2]; highest concentration of enhancer, 3.0 mM) | time course of the chemiluminescent signal ([3]; 0.75 mM enhancer, 2.00 mM perborate, luminol 0.625-10 mM, pH 8.6) | luminol concentration at which the luminescent signal reaches a plateau ([3]; 0.75 mM enhancer, 2.00 mM perborate, pH 8.6, highest luminol concentration used) | chemiluminescent signal relative to the maximum value ([3]; as printed in Example 4: highest concentration of enhancer, 3.0 mM)
c1ccc2c(c1)Nc1ccccc1S2 [phenothiazine] | deactivates the peroxidase enzyme | – | – | – | – | – | – | –
O=S(=O)([O-])CCCN1c2ccccc2Sc2ccccc21.[Na+] [sodium 3-(phenothiazin-10-yl)propane-1-sulfonate] | – | reaches a constant value within a few seconds | not significantly better than those observed with a standard enhancer such as 4-iodophenol | reaches a plateau within a few minutes, and then remains stable for at least thirty minutes | approximately 70% | reaches a plateau within a few minutes, and then remains stable for at least thirty minutes | 10 mM | approximately 70%
